Experimental findings from PubChem BioAssay (NCI) are described below.

Each structure is given as a SMILES string.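 Each compound was tested at five concentrations against cells in 96-well plates for 48 hours. TGI is the concentration that stops growth completely.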 Bounds are passed on as bounds.

Some test systems named below: A498 renal; IGROV1 ovarian; MOLT-4 leukemia; MALME-3M melanoma; SF-539 CNS; SNB-19 CNS; PC-3 prostate; OVCAR-4 ovarian; M14 melanoma; CCRF-CEM leukemia; NCI-H226 lung; NCI-H460 lung; SNB-75 CNS; SK-MEL-5 melanoma; SR leukemia; NCI-H522 lung; UO-31 renal; EKVX NSCLC; UACC-257 melanoma; MCF7 breast.
Experiment in all cases: inhibition of tumour cell growth, NCI panel, 48 h

`O=C1C=CC(=O)c2c1ccc1c3ccccc3n(-c3ccccc3)c21`: the TGI with A498 renal came to 35.2 µM; with IGROV1 ovarian, 34.5 µM; in the test on MOLT-4 leukemia, 2.89 µM; in the test with MALME-3M melanoma, 16.8 µM; with SF-539 CNS, 29.7 µM; in the test on SNB-19 CNS, 43.7 µM. Moreover, the TGI was 27 µM in the test with PC-3 prostate; 27.2 µM in the test on OVCAR-4 ovarian; 21.2 µM with M14 melanoma; 1.94 µM in the test on CCRF-CEM leukemia; 40 µM in the test with NCI-H226 lung; 34.6 µM with NCI-H460 lung. The TGI is 40.2 µM in the test on SNB-75 CNS; 31.2 µM with SK-MEL-5 melanoma; 1.31 µM with SR leukemia; 3.15 µM with NCI-H522 lung; 25.5 µM in the test on UO-31 renal; 28.7 µM in the test with EKVX NSCLC. In addition, the values for the TGI with UACC-257 melanoma and with MCF7 breast were 19.2 µM and above 100 µM, respectively.
Regarding `N#Cc1cc([N+](=O)[O-])ccc1NC(=O)/C(=N\NC(=O)c1ccncc1)C(c1cnc2ccc([N+](=O)[O-])cc2n1)[N+](=O)[O-]` (stereo not given), the TGI with A498 renal was 17.7 µM; in the test on IGROV1 ovarian, 14.2 µM; in the test on MOLT-4 leukemia, 22.9 µM; in the test on MALME-3M melanoma, 2.61 µM; in the test with SF-539 CNS it was 3.63 µM; with SNB-19 CNS, 8.16 µM. The TGI with PC-3 prostate was 21.4 µM; in the test with OVCAR-4 ovarian it was 5.76 µM; in the test with M14 melanoma it was 3.23 µM; in the test on CCRF-CEM leukemia, 25.6 µM; in the test on NCI-H226 lung, 7.58 µM; in the test with NCI-H460 lung, 8.17 µM. Besides, the TGI with SNB-75 CNS is 3.83 µM; in the test on SK-MEL-5 melanoma, 2.14 µM; in the test with SR leukemia, 46.8 µM; in the test with NCI-H522 lung, 3.46 µM; with UO-31 renal it was 7.6 µM; with EKVX NSCLC, 25.1 µM. Moreover, the results for the TGI in the test with UACC-257 melanoma and with MCF7 breast were 3.05 µM and 3.37 µM, respectively.
